In patent US20070111261A1, “Antigens” (priority 2001, published 2007):
Entries after “also recorded” stand apart in the source; their conditions may differ.

Assays:
[1] = tested on: mouse anti-HPV16 E7 mAb ED17; assay: Dot immunoassay with anti-HPV16 E7 mAb ED17; assay type: binding; conditions: for Linear determinant recognized by mAb ED17 (epitope mapping): dot immunoassays using 6-mer peptides offset by one residue; for Binding to mAb ED17 in dot immunoassay: 15-mer peptide spotted on membrane, primary antibody 1:500
Method: The peptides corresponding to the three peptide sequences were synthetized and used as antigens in dot immunoassay experiments with MAb-ED17, a mouse monoclonal IgG, raised to the full length E7 oncoprotein. Peptide purity was controlled by analytical HPLC, and the molecular mass of purified peptides confirmed by fast atomic bombardment mass spectrometry. Peptides were dissolved in 0.9% NaCl, aliquoted and stored at −20° C.
Nitrocellulose membranes (Nytran […] pore size, Schleicher & Schüll) were pretreated for 1 min in 4% BSA (bovine serum albumin)/10 mM Tris-HCl, pH 7.5/150 mM NaCl, followed by 10 min activation with 2.5% glutaraldehyde. Peptides (5 Φg) were spotted on the activated membrane, left to dry for 1 hr at room temperature, and probed in phosphate-buffered saline (PBS) containing 4% BSA, 0.1% (v/v) Tween 20, and the primary antibody (1:500). Primary antibody was mouse anti-HPV16 E7 monoclonal IgG1 raised to amino acids 1-98 representing full length E7 (ED17, cat # sc-6981, Santa Cruz Biotechnology, Inc., Santa Cruz, Calif.). Following a 1 h incubation at room temperature, the membrane was washed three times for 10 mins with PBS containing 4% BSA, 0.1% Tween-20 and incubated with horseradish peroxidase-conjugated affinity-purified sheep anti-mouse IgG for 1 h (1:2500; Santa Cruz Biotechnology). Membrane was washed in PBS (4 times for 5 mins), and immunoblots were developed using the enhanced chemiluminescence detection assay (ECL Western blotting analysis system, Amersham Pharmacia Biotech, Milan, Italy).
The identification of the H2-E^k presented HPV 16 E7 epitope was further ananyzed by epitope mapping. Dot immunoassays by using 6-mer peptides offset by one amino acid residue confirmed that the anti-E7 mAb recognized the linear determinant HPV 16 E52-61 YNIVTFCCKC (SEQ ID NO:108) present in the 15-mer peptide RAHYNIVTFCCKCDS (SEQ ID NO:61), having the highest binding potential to the mouse MHC II molecule, and a low degree of similarity to host proteins.
Four peptides were analyzed for epitopic determinants in dot immunoassay tests: E725-39 YEQLNDSSEEEDEID (control; SEQ ID NO:76); E784-98 MGTLGIVCPICSQKP (SEQ ID NO:71); E72-16 HGDTPTLHEYMLDLQ (SEQ ID No:69); E749-63 RAHYNIVTFCCKCDS (SEQ ID NO:61); and E732-46 SEEEDEIDGPAGQAE (SEQ ID NO:39). […] As expected, high similarity peptide E732-46 SEEEDEIDGPAGQAE (SEQ ID NO:39) was not reactive (FIG. 1, peptide 5).
E749-63 RAHYNIVTFCCKCDS (SEQ ID NO:61) was further analyzed by epitope mapping.

[2] = tested on: HPV-transformed tumor cells; conditions: mice; cited from earlier work
MAb-ED17 = assay: NMR spectra confirming epitope screening; assay type: binding, mouse
Excerpt: To confirm the epitope screening results, NMR spectra were obtained that confirmed the high affinity of MAb-ED17 towards the predicted epitopic peptide RAHYNIVTFCCKCDS (SEQ ID NO:61).

Substance	Binding to mAb ED17 in dot immunoassay [1]	also measured
AHYNIVTFCCKC		Linear determinant recognized by mAb ED17 (epitope mapping) [1]: recognized
HGDTPTLHEYMLDLQ (listed as Human papillomavirus)	not recognized; also recorded: No immune reaction	
HPV E744-62 peptide: polypeptide comprising amino acids 44-62 of HPV E7 protein (QAEPDRAHYNIVTFCCKCD; UniProt P03129 44-62, looked up, fragment)		Prevention of outgrowth of HPV-transformed tumor cells [2]: effective for preventing outgrowth
MGTLGIVCPICSQKP (listed as Human papillomavirus)	not recognized	
RAHYNIVTFCCKCDS (listed as Human papillomavirus)	Significant binding; also recorded: significant signal	Affinity of MAb-ED17 towards peptide by NMR spectra (MAb-ED17): high affinity
SEEEDEIDGPAGQAE (listed as Human papillomavirus)	not reactive	
YEQLNDSSEEEDEID (listed as Human papillomavirus)	no binding	
YNIVTFCCKC (listed as Human papillomavirus)		Linear determinant recognized by mAb ED17 (epitope mapping) [1]: recognized
